In publication PMC6409614, “BmTudor-sn Is a Binding Protein of Destruxin A in Silkworm Bm12 Cells” (Toxins, 2019):
pKd: −log10 of the molar value. Non-standard residues stand in square brackets, D forms with d. Residues, ends and D or L forms follow the SMILES beside them. dLac(3-vinyl) = C=CC[C@@H](O)C(=O)O; NMeV = CN[C@H](C(=O)O)C(C)C; NMeA = CN[C@@H](C)C(=O)O; βAla = NCCC(=O)O

What was measured:
BmPiwi [1] = assay: Bio-Layer Interferometry (BLI), BmPiwi; type: binding, Bombyx mori; settings: recombinant protein from Sf9 cells, DA 7.813-500 μM
Method: (§1) All proteins were prepared by eukaryotic expression in the Sf9 cell line. These were tagged with His-tag and purified by nickel affinity chromatography. BLI analysis was performed on a ForteBio OctetQK System (K2, Pall Fortebio Corp, Menlo Park, CA, USA). Generally, the protein samples were coupled with a biosensor for immobilization. Serial not gradient dilutions of DA (500, 250, 125, 62.5, 31.25, 15.63, and 7.813 μM) were used for treatment. PBST buffer (0.05% Tween20, 5% DMSO) was used for the reference and dilution buffers. The working procedure was baseline for 60 s, association for 60 s, and dissociation for 60 s. Finally, the raw data were processed with Data Analysis Software (9.0, Pall Fortebio Corp, Menlo Park, CA, USA).

BmTudor-sn with BmAGO1 = assay: Insect two-hybrid (I2H), interaction of BmTudor-sn and mutants with BmAGO1; type: cell-based, Bombyx mori; settings: Sf9 cells, luciferase; for mutants with signal different from wild type: p < 0.05, DMRT
Method: BmTudor-sn and mutants were cloned into the I2H vector pIE-AD, and BmAGO1 was cloned into the I2H vector pIE-DBD using the Gateway system. These vectors and the luciferase vector were co-transfected into the Sf9 cell line and treated with DA at 0.02 and 0.2 µg/mL. The luciferase activities in the cell extracts were determined using a Luciferase Reporter Assay System (Promega, Beijing, China) and Synergy™ H1 (BioTek, Winooski, VT, USA).

BmPiwi [2] = assay: Transcriptional level of BmPiwi; type: cell-based, Bombyx mori; settings: by DA; method not described
BmAGO2 [3] = assay: Bio-Layer Interferometry (BLI), BmAGO2; type: binding, Bombyx mori; settings: recombinant protein from Sf9 cells, DA 7.813-500 μM
Method: as §1

BmTudor-sn [4] = assay: Bio-Layer Interferometry (BLI), BmTudor-sn; type: binding, Bombyx mori; settings: PBST (0.05% Tween20, 5% DMSO)
Method: as §1

[5] = test system: heat shock proteins (HSPs); settings: cultured cells (Bm12), DARTS; cited from earlier work
From the text: (§2) Destruxins are cyclodepsipeptidic mycotoxins, and there are 39 analogues. […] Because of the immunosuppression activity of DA in insects, the majority of studies have focused on the mechanism of action of the effect of DA on the immune-related pathway or st ...

insects = settings: cited from earlier work
From the text: as §2

HSP = settings: in vitro molecular interaction validation; cited from earlier work
From the text: as §2

BmTudor-sn [6] = settings: Bm12 cells; specific proteinase; earlier DARTS analysis of the authors; reference not given; cited from earlier work
From the text: Molecular docking is a reasonable, efficient, and convenient strategy to narrow down candidates among all proteins compared to other methods such as heterologous expression and kinetic analysis, which require verification one by one. However, it seems paradoxical in this study that proteins with the top docking scores were not the binding protein [24]. Actually, docking is a completely theoretical speculation, and other experiments are required to draw a conclusion. H ...

BmAGO2 [7] = assay: Cellular thermal shift assay (CETSA), BmAGO2; type: cell-based, Bombyx mori; settings: Bm12 cells, DA 200 µg/mL, 37–58 °C, freeze-thaw lysis, western blot of supernatant
Method: (§3) The Bm12 cell line was used to conduct the CETSA and immunoblot experiments. Cells were treated with DA. For immunoblotting, cell extracts from different DA treatments, collected after incubation with RIPA lysis buffer, were digested with proteinase K and then heated in water at 90 °C for 5 min. Samples were analyzed using SDS-PAGE and transferred to PVDF membranes. The membranes were then incubated in skim milk powder, followed by incubation with primary and HRP antibodies. ECL was added to the chemiluminescence reaction. For CETSA, Bm12 cells, treated with 200 µg/mL DA, were divided into 8 aliquots, heated at 37–58 °C, and lysed by a freeze-thaw cycle. The supernatants of the lysed cells were used for the western blot analysis as described above.

Bm12 cells = assay: RNAi and viability assessment under DA treatment; type: cell-based, silkworm (Bombyx mori)
Method: SiRNAs were prepared by synthesis in vitro. The sequence of BmTudor-sn siRNA is 5ʹ-[…]-3ʹ and 5ʹ-[…]-3ʹ. SiRNA and FuGENE transfection reagent were each diluted in serum-free medium and then mixed. The mixture was added to Bm12 cells after the DA treatment. Viability and toxicity assessment were performed following the manufacturer’s instructions.

BmAGO2 [8] = assay: Transcriptional level of BmAGO2; type: cell-based, Bombyx mori; settings: by DA; method not described
BmTudor-sn [9] = assay: Cellular thermal shift assay (CETSA), BmTudor-sn; type: cell-based, Bombyx mori; settings: Bm12 cells
Method: as §3

BmTudor-sn [10] = assay: Immunoblot after proteolysis, BmTudor-sn; type: cell-based, Bombyx mori; settings: Bm12 cell extracts from different DA treatments, proteinase K, western blot
Method: as §3

BmTudor-sn [11] = assay: Transcriptional level of BmTudor-sn; type: cell-based, Bombyx mori; settings: by DA; method not described
BmPiwi [12] = assay: Cellular thermal shift assay (CETSA), BmPiwi; type: cell-based, Bombyx mori; settings: Bm12 cells, DA 200 µg/mL, 37–58 °C, freeze-thaw lysis, western blot of supernatant
Method: as §3

BmTudor-sn [13] = target: T1, BmTudor-sn (Bombyx mori, UniProt D9N4J4); assay: bio-layer interferometry (ForteBio OctetQK), protein immobilised on biosensor; type: binding
T1 construct: gene Tudor-SN; endogenous protein in Bm12 cells (CETSA); four staphylococcal nuclease domains and a Tudor domain
T1 sequence (D9N4J4 1-888): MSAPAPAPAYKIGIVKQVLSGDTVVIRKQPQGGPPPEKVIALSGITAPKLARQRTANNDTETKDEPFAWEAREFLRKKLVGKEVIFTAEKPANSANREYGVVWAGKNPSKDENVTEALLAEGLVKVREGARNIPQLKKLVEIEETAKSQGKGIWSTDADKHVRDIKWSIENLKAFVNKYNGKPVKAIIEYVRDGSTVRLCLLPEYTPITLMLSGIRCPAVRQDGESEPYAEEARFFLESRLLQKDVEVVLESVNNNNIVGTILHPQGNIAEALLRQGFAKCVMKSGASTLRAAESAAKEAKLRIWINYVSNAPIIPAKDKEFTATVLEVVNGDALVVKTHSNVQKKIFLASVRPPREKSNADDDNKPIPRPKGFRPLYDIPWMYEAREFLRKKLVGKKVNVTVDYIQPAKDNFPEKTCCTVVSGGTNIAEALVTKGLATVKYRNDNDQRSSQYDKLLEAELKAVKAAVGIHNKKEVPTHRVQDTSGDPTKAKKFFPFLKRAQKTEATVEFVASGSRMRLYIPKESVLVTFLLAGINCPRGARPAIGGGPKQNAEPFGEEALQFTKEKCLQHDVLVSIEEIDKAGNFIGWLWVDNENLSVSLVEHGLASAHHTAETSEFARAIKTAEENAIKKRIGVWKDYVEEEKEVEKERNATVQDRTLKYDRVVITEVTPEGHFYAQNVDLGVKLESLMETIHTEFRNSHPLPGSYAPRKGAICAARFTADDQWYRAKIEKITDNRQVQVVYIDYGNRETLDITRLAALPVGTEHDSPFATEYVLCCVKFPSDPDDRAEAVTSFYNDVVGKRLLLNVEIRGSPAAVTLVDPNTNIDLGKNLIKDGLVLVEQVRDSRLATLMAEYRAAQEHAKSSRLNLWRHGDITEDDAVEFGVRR

BmTudor-sn [14] = target: T1, BmTudor-sn; assay: cellular thermal shift assay (CETSA), western blot, endogenous protein in Bm12 cells; type: cell-based; settings: 200 µg/mL DA; intact Bm12 cells heated at 37–58 °C
V-ATPase = settings: silkworm hemocytes; earlier work of the authors, no reference given; cited from earlier work
From the text: (§4) DA has been previously reported to play a role in immune related pathways and in inducing the immunosuppression phenotype in insects. The majority of studies have focused on these roles, while few have addressed the mechanism of action in cells. […] Tudor-sn, a multifunctional protein, was reported to regulate do ...

[15] = cited from earlier work
From the text: as §4

[16] = DA 0.02 or 0.2 µg/mL, by mutant site

Molecule: C=CC[C@H]1OC(=O)CCNC(=O)[C@H](C)N(C)C(=O)[C@H](C(C)C)N(C)C(=O)[C@H]([C@@H](C)CC)NC(=O)[C@@H]2CCCN2C1=O [DA, Destruxin A] (cyclo([dLac(3-vinyl)]PI[NMeV][NMeA][βAla])) [listing 1 of 2 here]
- interaction with DA (BmPiwi [1]): not BmPiwi or BmAGO2
- mutants with signal different from wild type (BmTudor-sn with BmAGO1; DA 0.02 µg/mL): 2 mutants, Ser707Ala and leu704Ala
- mutants with signal different from wild type (BmTudor-sn with BmAGO1; DA 0.2 µg/mL): 3 mutants, Ser701Ala, Leu704Ala, and Tyr708Ala
- domain of differing mutants (BmTudor-sn with BmAGO1; DA 0.02 and 0.2 µg/mL): in the Tudor domain (Ser707, Leu704, Ser701, Tyr708) rather than the SN3 (Lys492) and SN4 (Lys582) domains
- interaction site at both concentrations (BmTudor-sn with BmAGO1; DA 0.02 and 0.2 µg/mL): interacts with BmTudor-sn at both concentrations at Leu704
- effect on BmTudor-sn/BmAGO1 pair interaction, impeded (BmTudor-sn with BmAGO1; [16]): impeded the protein pair interaction at Ser707 and Tyr708
- effect on BmTudor-sn/BmAGO1 pair interaction, promoted (BmTudor-sn with BmAGO1; [16]): promoted it at Leu704 and Ser701
- upregulation at the transcriptional level (BmPiwi [2]): 2-3 fold
- interaction with DA (BmAGO2 [3]): not BmPiwi or BmAGO2
- pKd (BmTudor-sn [4]; BLI, ForteBio OctetQK, His-tagged recombinant protein from Sf9 cells immobilized, association 60 s, dissociation 60 s, DA 7.813-500 μM, read-out: affinity constant KD): 3.23
- interaction with DA (BmTudor-sn [4]; BLI, DA 125, 250 and 500 µM): interacts with BmTudor-sn at concentrations of 125 µm, 250 µm, and 500 µm
- BLI Response (BmTudor-sn [4]; DA 7.81 uM): -0.0024
- BLI Response (BmTudor-sn [4]; DA 15.6 uM): -0.0035
- BLI Response (BmTudor-sn [4]; DA 31.3 uM): -0.0012
- BLI Response (BmTudor-sn [4]; DA 62.5 uM): 0.0001
- BLI Response (BmTudor-sn [4]; DA 125 uM): 0.0032
- BLI Response (BmTudor-sn [4]; DA 250 uM): 0.0086
- BLI Response (BmTudor-sn [4]; DA 500 uM): 0.0071
- induction of heat shock proteins [5]: greatly induced heat shock proteins (HSPs) in cultured cells
- insecticidal effect and anti-immunity activity (insects): strong insecticidal effect and anti-immunity activity
- binding to an HSP (HSP): binds to an HSP in vitro
- appearance of BmTudor-sn in DARTS (BmTudor-sn [6]): only appeared in the 200 µg/mL treatment with a specific proteinase and not at the lower dosage and with other proteinases
- thermal stability shift (CETSA) (BmAGO2 [7]): no thermal stability shift in BmPiwi and BmAGO2
- viability of BmTudor-sn knock down cells (Bm12 cells; Bm12 cells under DA treatment, * p < 0.05, t test): higher viability under DA treatment
- increase in viability with BmTudor-sn knockdown (Bm12 cells; Bm12 cells, BmTudor-sn siRNA, DA treatment): approximately 20%
- upregulation at the transcriptional level (BmAGO2 [8]): 2-3 fold
- thermal stability (CETSA), dose dependence (BmTudor-sn [9]; 200 µg/mL versus lower dose): BmTudor-sn showed thermal stability with the 200 µg/mL treatment and not at the lower dose
- thermal stability (CETSA) (BmTudor-sn [9]; DA 200 µg/mL, 37–58 °C, freeze-thaw lysis, western blot of supernatant): thermal stability of BmTudor-sn increased following DA binding modification
- protein stability under proteolysis (immunoblot) (BmTudor-sn [10]): stable with DA treatment in a dosage-dependent manner under proteolysis
- upregulation at the transcriptional level (BmTudor-sn [11]): 2-3 fold
- thermal stability shift (CETSA) (BmPiwi [12]): no thermal stability shift in BmPiwi and BmAGO2

Molecule: C=CC[C@H]1OC(=O)CCNC(=O)[C@H](C)N(C)C(=O)[C@H](C(C)C)N(C)C(=O)[C@H]([C@@H](C)CC)NC(=O)[C@@H]2CCCN2C1=O [DA, Destruxin A] (cyclo([dLac(3-vinyl)]PI[NMeV][NMeA][βAla])) [listing 2 of 2 here]
- pKd (BmTudor-sn [13]): 3.23
- thermal stability shift (BmTudor-sn [14]): the thermal stability of BmTudor-sn increased following DA binding modification

Molecule: Destruxin B [DB]
- sensitivity to V-ATPase compared with DA (V-ATPase): more sensitive to V-ATPase than DA in silkworm hemocytes
- anti-cancer activity [15]: clear anti-cancer activity
